# Assay results from US10273290B2, “Hydrocarbon double-stapled stabilized HIV-1 GP41 heptad repeat domain peptides” (DANA-FARBER CANCER INSTITUTE, INC., priority 2009, dated 2019).
# Bridge positions count the residues as written; N and C are the ends. Square brackets hold non-standard residues; d marks the D form. Peptide text beside a SMILES is read from it. S5 = C=CCCC[C@](C)(N)C(=O)O; Nle = CCCC[C@H](N)C(=O)O
# Columns and labels:
# chymotrypsin = target: T1, chymotrypsin (Bos taurus, UniProt P00766); assay: Protease resistance assay, chymotrypsin (LC/MS); format: in vitro ADME; details: pH 7.4, 0.5 chymotrypsin, peptide 25 μM
# T1 construct: purchased Sigma
# Experimental: The DAD signal was set to 280 nm with an 8 nm bandwidth and MSD set to scan mode with one channel at (M+2H)/2, +1 mass units and the other at (M+3H)/3, +1 mass units. Integration of each MSD signal yielded areas under the curve of >10^8 counts. Reaction samples were composed of 5 μL peptide in DMSO (1 mM stock) and 195 μL of buffer consisting of 50 mM phosphate buffer pH 7.4 containing 2 mM CaCl2. Upon injection of the 0 hr time point sample, 2 μL of 50 ng/μL chymotrypsin (Sigma) was added and the amount of intact peptide quantitated by serial injection over time. An internal control of acetylated tryptophan carboxamide at a concentration of 100 μM was used to normalize each MSD data point. A plot of MSD area versus time yielded an exponential decay curve and half-lives were determined by nonlinear regression analysis using Prism software (GraphPad).
# pepsin = assay: Protease resistance assay, pepsin at pH 2; details: pepsin (isolated protease) in buffer, pH 2
# Experimental: The DAD signal was set to 280 nm with an 8 nm bandwidth and MSD set to scan mode with one channel at (M+2H)/2, +1 mass units and the other at (M+3H)/3, +1 mass units. […] Reaction samples were composed of 5 μL peptide in DMSO (1 mM stock) and 195 μL of buffer consisting of 50 mM phosphate buffer pH 7.4 containing 2 mM CaCl2. Upon injection of the 0 hr time point sample, 2 μL of 50 ng/μL chymotrypsin (Sigma) was added and the amount of intact peptide quantitated by serial injection over time. An internal control of acetylated tryptophan carboxamide at a concentration of 100 μM was used to normalize each MSD data point. A plot of MSD area versus time yielded an exponential decay curve and half-lives were determined by nonlinear regression analysis using Prism software (GraphPad). The assay was also performed using trypsin and pepsin in their appropriate buffer conditions.
# [1] = test system: resistant primary R5 isolate YU2; assay: Luciferase-based HIV-1 infectivity assay, YU2; format: cell-based; details: compared to T649v
# Excerpt: Also the direct inhibitory activity of modified polypeptides and the antibodies targeted thereto can be quantified based upon their capacity to directly block HIV infection of CD4-positive and CCR5-expressing canine thymus cells. Recombinant HIV-1 viruses (eg. HXBc2, YU2, and additional strains available through the NIH AIDS Research and Reference Reagent Program) expressing firefly luciferase and containing the indicated envelope glycoproteins can be used to infect Cf2Th-CD4-CCR5/CXCR4 cells in the presence of serially diluted modified HIV-1 gp41 polypeptides or antibodies targeted thereto After 48 hours, the cells are lysed and luciferase activity is quantified (Si, Z. H., M. Cayabyab, and J. Sodroski, Journal of Virology, 2001. 75(9): p. 4208-4218 Si, Z. H., et al., PNAS, 2004. 101(14): p. 5036-5041). The identical experiment is performed with the amphotropic murine leukemia virus (AMLV), to monitor for any nonspecific effects of the modified polypeptides or antibodies. […]
# HIV-1 infectivity assays were performed using known methods (Madani et al., 2007 Inhibition of human immunodeficiency virus envelope glycoprotein-mediated single cell lysis by low-molecular-weight antagonists of viral entry. J Virol, 81: 532-538; and Si et al., 2001 Envelope glycoprotein determinants of neutralization resistance in a simian-human immunodeficiency virus (SHIV-HXBc2P 3.2) derived by passage in monkeys. J Virol, 75:4208-4218; both incorporated herein by reference). […] D-luciferin (50 μL of 1 mM stock in 100 μL luciferin buffer) is then added to each well and luciferase activity measured using a luminometer (EG&G Berthold).
# To assess the functional impact of hydrocarbon stapling on gp41-based fusion inhibitor activity, SAH-gp41 peptides were tested and compared to their unmodified counterparts in a luciferase-based HIV-1 infectivity assay. Recombinant HIV-1 bearing the envelope glycoproteins from three distinct HIV-1 strains, HXBc2, ADA, and HXBc2P 3.2, and a negative control virus bearing the amphotropic murine leukemia virus (A-MLV) envelope glycoproteins, were evaluated. […]
# Chymotrypsin, pH 7 = assay: Chymotrypsin, pH 7
# Excerpt: Table printed on a drawing sheet, FIG. 17C
# Title: Chymotrypsin, pH 7
# First reader's note: The table also serves as the legend of the plot of fraction intact over time; the line and marker symbols are left out.
# [2] = Circular dichroism, α-helical content; format: physicochemical
# Experimental: The α-helicity of stapled modified polypeptides was compared to their unmodified counterparts by circular dichroism. CD spectra were obtained on an Aviv spectropolarimeter at 20° C. using the following standard measurement parameters: wavelength, 190-260 nm; step resolution, 0.5 nm; speed, 20 nm/sec; accumulations, 10; response, 1 sec; bandwidth, 1 nm; path length, 0.1 cm. The α-helical content of each peptide was calculated by dividing the mean residue ellipticity [θ]222obs, by the reported [θ]222obs for a model helical peptide (Forood, B., E. J. Feliciano, and K. P. Nambiar, PNAS, 1993. 90(3): p. 838-842; J. Martin Scholtz, Biopolymers, 1991. 31(13): p. 1463-1470; Lawless, M. K., et al., Biochemistry, 1996. 35(42): p. 13697-13708) or using, for example, the Aviv machine using CDNN software developed by Brohm in order to deduce five different secondary structure fractions (helix, parallel and antiparallel beta-sheet, beta-turn and random coil). Protein Engineering, 1992. 5(3); p. 191-195
# In order to evaluate secondary structure improvements of hydrocarbon-stapled peptides, we record and analyze circular dichroism (CD) spectra on an Aviv Biomedical spectrometer (model 410), as described above. […] The CD spectra are initially plotted as wavelength versus millidegree. […] After conversion to mean residue ellipticity, percent α-helicity can be calculated using the equation, % helicity=100×[θ]222/^max[θ]222, where ^max[θ]222=−40,000×[1−(2.5/number of amino acid residues)]. We also employ the curve-fitting CDDN software that is bundled with our spectrometer to calculate the relative fractions of secondary structure including α-helix, parallel and antiparallel β-sheet, β-turn and random coil.
SMILES,Half-Life (chymotrypsin) [h],half-life at 25 μM (pepsin) [h],"anti-YU2 activity, in words [1]","Half-Life (Chymotrypsin, pH 7) [h]",% helicity at pH 2 ([2]; pH 2) [%],% helicity at pH 7 ([2]; pH 7) [%]
CCCC[C@H](NC(C)=O)C(=O)N[C@H](C(=O)N[C@@H](Cc1c[nH]c2ccccc12)C(=O)N[C@@]1(C)CCCC=CCCC[C@@](C)(C(=O)N[C@@H](CCC(=O)O)C(=O)N[C@H](C(=O)N[C@@H](CC(N)=O)C(=O)N[C@@H](CC(N)=O)C(=O)N[C@@H](Cc2ccc(O)cc2)C(=O)N[C@H](C(=O)N[C@@H](CO)C(=O)N[C@@H](CC(C)C)C(=O)N[C@H](C(=O)N[C@@H](Cc2c[nH]cn2)C(=O)N[C@@H](CO)C(=O)N[C@@H](CC(C)C)C(=O)N[C@H](C(=O)N[C@@H](CCC(=O)O)C(=O)N[C@@H](CCC(=O)O)C(=O)N[C@@H](CO)C(=O)N[C@@H](CCC(N)=O)C(=O)N[C@@H](CC(N)=O)C(=O)N[C@@H](CCC(N)=O)C(=O)N[C@@H](CCC(N)=O)C(=O)N[C@@H](CCC(=O)O)C(=O)N[C@@H](CCCCN)C(=O)N[C@@H](CC(N)=O)C(=O)N[C@@H](CCC(=O)O)C(=O)N[C@@H](CCC(N)=O)C(=O)N[C@@H](CCC(=O)O)C(=O)N[C@@H](CC(C)C)C(=O)N[C@@H](CC(C)C)C(=O)N[C@@H](CCC(=O)O)C(N)=O)[C@@H](C)CC)[C@@H](C)CC)[C@@H](C)O)[C@@H](C)CC)NC(=O)[C@H](CC(=O)O)NC(=O)[C@H](Cc2c[nH]c3ccccc23)NC(=O)[C@H](CCC(=O)O)NC1=O)[C@@H](C)O [SAH-gp41(626-662)(A)] (Ac-[Nle]TW[S5]EWD[S5]EINNYTSLIHSLIEESQNQQEKNEQELLE-NH2; staple 4-8; N-terminus and C-terminus assumed),1.32,1.97,enhanced anti-YU2 activity,1.93,,
CCCC[C@H](NC(C)=O)C(=O)N[C@H](C(=O)N[C@@H](Cc1c[nH]c2ccccc12)C(=O)N[C@@H](CCCC)C(=O)N[C@@H](CCC(=O)O)C(=O)N[C@@H](Cc1c[nH]c2ccccc12)C(=O)N[C@@H](CC(=O)O)C(=O)N[C@@H](CCCNC(=N)N)C(=O)N[C@@H](CCC(=O)O)C(=O)N[C@H](C(=O)N[C@@H](CC(N)=O)C(=O)N[C@@H](CC(N)=O)C(=O)N[C@@H](Cc1ccc(O)cc1)C(=O)N[C@H](C(=O)N[C@@H](CO)C(=O)N[C@@H](CC(C)C)C(=O)N[C@H](C(=O)N[C@@H](Cc1c[nH]cn1)C(=O)N[C@@H](CO)C(=O)N[C@@H](CC(C)C)C(=O)N[C@H](C(=O)N[C@@H](CCC(=O)O)C(=O)N[C@@H](CCC(=O)O)C(=O)N[C@@H](CO)C(=O)N[C@@H](CCC(N)=O)C(=O)N[C@@H](CC(N)=O)C(=O)N[C@@H](CCC(N)=O)C(=O)N[C@@]1(C)CCCC=CCCC[C@@](C)(C(=O)N[C@@H](CCC(N)=O)C(=O)N[C@@H](CCC(=O)O)C(=O)N[C@@H](CC(C)C)C(=O)N[C@@H](CC(C)C)C(=O)N[C@@H](CCC(=O)O)C(N)=O)NC(=O)[C@H](CC(N)=O)NC(=O)[C@H](CCCCN)NC(=O)[C@H](CCC(=O)O)NC1=O)[C@@H](C)CC)[C@@H](C)CC)[C@@H](C)O)[C@@H](C)CC)[C@@H](C)O [SAH-gp41(626-662)(F)] (Ac-[Nle]TW[Nle]EWDREINNYTSLIHSLIEESQNQ[S5]EKN[S5]QELLE-NH2; staple 28-32; N-terminus and C-terminus assumed),1.7,2.15,enhanced anti-YU2 activity,1.28,82,63
